Patent US11370773B1, “Inhibiting human integrin (alpha-4) (beta-7)” (Morphic Therapeutic, Inc., priority 2019, dated 2022)

Legend:
integrin α4β7 = target: T1, integrin α4β7 (Homo sapiens, UniProt P13612+P26010); test: Fluorescence Polarization (FP) assay for α4β7 binding, competition with fluorescein-labeled peptide; details: 6.5 nM integrin α4β7, 3 nM fluorescein-labeled peptide, 2 mM MnCl2; read-out: FP Assay (Example 5) IC50
T1 sequence (P13612 34-977 limits assumed): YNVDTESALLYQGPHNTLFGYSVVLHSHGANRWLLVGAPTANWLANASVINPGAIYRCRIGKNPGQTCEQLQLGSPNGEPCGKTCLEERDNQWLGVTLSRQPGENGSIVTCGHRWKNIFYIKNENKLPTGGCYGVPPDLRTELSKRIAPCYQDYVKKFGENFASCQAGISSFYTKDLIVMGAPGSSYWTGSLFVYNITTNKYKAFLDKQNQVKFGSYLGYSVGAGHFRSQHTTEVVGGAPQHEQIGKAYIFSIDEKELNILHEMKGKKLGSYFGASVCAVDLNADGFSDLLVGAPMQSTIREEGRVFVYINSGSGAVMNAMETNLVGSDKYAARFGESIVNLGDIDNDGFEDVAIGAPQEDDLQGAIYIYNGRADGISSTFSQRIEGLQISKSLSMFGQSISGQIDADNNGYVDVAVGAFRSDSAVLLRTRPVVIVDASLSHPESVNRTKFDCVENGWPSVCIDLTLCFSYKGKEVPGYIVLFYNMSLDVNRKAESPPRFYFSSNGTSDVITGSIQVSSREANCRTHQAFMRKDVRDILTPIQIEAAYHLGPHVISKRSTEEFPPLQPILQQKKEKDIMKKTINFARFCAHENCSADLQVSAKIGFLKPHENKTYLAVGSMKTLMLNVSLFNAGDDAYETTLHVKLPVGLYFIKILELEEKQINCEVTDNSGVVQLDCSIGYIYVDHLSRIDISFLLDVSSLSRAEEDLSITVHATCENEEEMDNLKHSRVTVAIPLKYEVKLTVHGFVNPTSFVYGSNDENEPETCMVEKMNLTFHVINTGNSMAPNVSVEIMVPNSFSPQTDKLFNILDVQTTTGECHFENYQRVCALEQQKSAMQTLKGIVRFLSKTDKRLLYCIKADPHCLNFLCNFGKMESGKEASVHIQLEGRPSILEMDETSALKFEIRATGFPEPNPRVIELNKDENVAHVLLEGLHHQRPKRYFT
T1 sequence (P26010 20-723 limits assumed): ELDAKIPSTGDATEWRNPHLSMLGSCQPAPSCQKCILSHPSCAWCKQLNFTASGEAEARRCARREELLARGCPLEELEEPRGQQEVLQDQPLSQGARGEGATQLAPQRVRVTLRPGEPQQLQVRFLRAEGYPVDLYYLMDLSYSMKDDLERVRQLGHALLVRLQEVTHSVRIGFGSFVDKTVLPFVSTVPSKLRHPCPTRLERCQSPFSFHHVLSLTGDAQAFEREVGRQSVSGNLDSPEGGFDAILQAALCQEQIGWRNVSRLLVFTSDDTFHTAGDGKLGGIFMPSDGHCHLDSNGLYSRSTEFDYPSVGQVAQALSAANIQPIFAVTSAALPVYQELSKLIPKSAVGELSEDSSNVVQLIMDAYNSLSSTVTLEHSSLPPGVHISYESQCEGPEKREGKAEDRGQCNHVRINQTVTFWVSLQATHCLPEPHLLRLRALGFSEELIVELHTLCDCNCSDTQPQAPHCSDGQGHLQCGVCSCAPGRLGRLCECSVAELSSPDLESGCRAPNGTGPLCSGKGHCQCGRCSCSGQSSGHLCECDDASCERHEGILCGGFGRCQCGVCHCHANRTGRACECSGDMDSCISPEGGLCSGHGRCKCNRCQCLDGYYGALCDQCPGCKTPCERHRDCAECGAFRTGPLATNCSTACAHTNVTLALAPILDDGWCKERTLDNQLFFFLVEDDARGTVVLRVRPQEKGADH
Method: (§1) Three in vitro assays were used to examine the α4β7 mechanistic process used by cells: 1) ligand:receptor affinity, 2) the avidity of those interactions on a cell's surface, and 3) how those interactions fare under an imposing force. In Example 5, a Fluorescence Polarization (FP) assay is used to measure compound activity through binding competition with the fluorescein-labeled peptide. In Example 6, the potency of compounds against α4β7 is measured in the cell-based ligand binding assay (LBA), using RPMI 8866 cells incubated with the compound samples in competition with soluble MAdCAM-1 ligand. In Example 7, activity of compounds is evaluated in a cell adhesion assay that mechanistically tests what occurs in vivo when trafficking cells utilize α4β7 to adhere to MAdCAM-1 expressing HEVs of the gut during the extravasation process. In the cell adhesion assay of Example 7, a MAdCAM1-(Fc) is coated on plastic, and α4β7 expressing cells (RPMI-8866) are allowed to adhere to the coated surface in the presence of the test compounds. Next, the force of washing with buffer is applied to cells thereby testing the strength of that adhesion. Unattached cells are removed and the remaining adherent cells are quantified.
Fluorescence Polarization (FP) assays were used to measure compound activity through binding competition with the fluorescein-labeled peptide […]{Lys(FITC)}. In the assay, 6.5 nM of integrin α4β7 was incubated with the test compound in 2 mM manganese chloride, 0.1 mM calcium chloride, 20 mM HEPES buffer at pH 7.3, 150 mM sodium chloride, 0.01% Triton X-100, 2% DMSO, and 3 nM of the fluorescein-labeled peptide. Running the assays in 384-well plates, the integrin protein was pre-incubated with the test compounds for 15 minutes at 22° C. before the fluorescein-labeled peptide was added. After the fluorescein-labeled peptide was added, the assay was incubated at 22° C. for 1 hour and fluorescence polarization was measured. IC50 values were determined by non-linear regression, four-parameter curve fitting.

α4β7 = target: T2, α4β7 (Homo sapiens, UniProt P13612+P26010); test: Cell adhesion assay, RPMI8866 cells adhering to MAdCAM coated plates; type: cell-based; details: RPMI8866 cells on recombinant human MAdCAM coated plates; read-out: CA Assay (Example 7) IC50
T2 construct: α4β7 expressing cells (RPMI-8866); endogenous in cells; host or cells: RPMI 8866
T2 sequence (P13612 34-1032): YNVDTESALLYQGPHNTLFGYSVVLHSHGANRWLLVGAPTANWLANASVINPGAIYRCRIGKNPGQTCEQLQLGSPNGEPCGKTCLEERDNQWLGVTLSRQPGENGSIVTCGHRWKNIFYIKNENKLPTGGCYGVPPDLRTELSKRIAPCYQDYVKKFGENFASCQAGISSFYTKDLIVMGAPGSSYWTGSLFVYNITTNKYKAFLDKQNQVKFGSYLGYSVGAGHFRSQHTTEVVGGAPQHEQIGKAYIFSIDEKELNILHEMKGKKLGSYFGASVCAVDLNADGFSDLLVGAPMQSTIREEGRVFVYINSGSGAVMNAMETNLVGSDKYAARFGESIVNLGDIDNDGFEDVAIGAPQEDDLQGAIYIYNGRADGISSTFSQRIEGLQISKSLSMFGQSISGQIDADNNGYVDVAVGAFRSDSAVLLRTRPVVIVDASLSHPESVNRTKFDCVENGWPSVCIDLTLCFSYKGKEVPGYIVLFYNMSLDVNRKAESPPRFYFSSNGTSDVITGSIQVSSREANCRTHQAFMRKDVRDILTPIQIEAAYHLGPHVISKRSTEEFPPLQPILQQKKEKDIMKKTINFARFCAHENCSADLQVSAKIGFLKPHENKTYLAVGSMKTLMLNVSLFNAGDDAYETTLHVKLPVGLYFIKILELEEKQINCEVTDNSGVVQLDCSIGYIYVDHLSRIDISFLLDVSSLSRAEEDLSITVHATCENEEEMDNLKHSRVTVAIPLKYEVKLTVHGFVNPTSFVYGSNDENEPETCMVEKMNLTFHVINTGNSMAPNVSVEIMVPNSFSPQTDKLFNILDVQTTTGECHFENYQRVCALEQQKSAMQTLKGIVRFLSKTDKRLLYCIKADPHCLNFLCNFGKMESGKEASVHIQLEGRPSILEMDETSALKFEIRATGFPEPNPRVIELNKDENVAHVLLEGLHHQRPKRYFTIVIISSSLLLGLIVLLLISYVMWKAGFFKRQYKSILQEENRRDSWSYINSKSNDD
T2 sequence (P26010 20-798): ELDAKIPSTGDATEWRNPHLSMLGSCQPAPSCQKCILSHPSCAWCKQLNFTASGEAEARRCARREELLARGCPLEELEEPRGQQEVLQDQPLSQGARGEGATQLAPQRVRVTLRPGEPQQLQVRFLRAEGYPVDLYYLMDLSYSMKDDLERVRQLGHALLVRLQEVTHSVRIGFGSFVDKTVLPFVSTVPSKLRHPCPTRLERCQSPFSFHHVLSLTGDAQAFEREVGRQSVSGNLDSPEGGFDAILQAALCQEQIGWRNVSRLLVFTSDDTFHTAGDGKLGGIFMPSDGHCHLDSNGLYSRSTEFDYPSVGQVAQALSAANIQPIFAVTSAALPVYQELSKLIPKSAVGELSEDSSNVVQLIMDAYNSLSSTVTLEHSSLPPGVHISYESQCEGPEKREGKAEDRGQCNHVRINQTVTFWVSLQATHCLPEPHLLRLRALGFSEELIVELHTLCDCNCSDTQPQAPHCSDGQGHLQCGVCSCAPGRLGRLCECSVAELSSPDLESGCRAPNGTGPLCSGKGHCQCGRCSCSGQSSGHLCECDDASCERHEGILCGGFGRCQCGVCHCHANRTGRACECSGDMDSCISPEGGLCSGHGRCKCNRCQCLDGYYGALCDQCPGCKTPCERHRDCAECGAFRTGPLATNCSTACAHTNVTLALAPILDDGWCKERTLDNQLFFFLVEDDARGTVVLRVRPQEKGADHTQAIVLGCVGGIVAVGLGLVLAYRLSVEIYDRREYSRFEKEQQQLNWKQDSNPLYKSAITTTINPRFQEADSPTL
Method: as §1
Example 7 describes a cell adhesion assay.
To each well of a 96 well plate, 100 ug of recombinant human MAdCAM in 100 ul PBS is added and incubated overnight at 4° C. After incubation MAdCAM is removed by aspiration and 200 ul of PBS+1% BSA is added to block the plate for 2 hours at 37° C. and 5% CO2. During this incubation dilution curves of compound are made in 100% DMSO in 96 well V bottom plates. 1.75 ul of diluted compounds are then transferred to a new 96 well U bottom plate containing 20 ul of assay media (phosphate free DMEM+25 mM HEPES+1% BSA). To this an additional 155 ul of assay media is added with mixing by pipetting up and down. This mixture is allowed to incubate for 15 minutes at 37° C. and 5% CO2. After incubation 175 ul of assay media containing 2e6/mL RPMI8866 cells is added to compound containing wells without mixing and plate is allowed to incubate for another 15 minutes at 37° C. and 5% CO2. During this incubation MAdCAM coated plates are removed from incubator and washed twice with 200 ul PBS+0.1% BSA. […] This plate is then incubated at 37° C. and 5% CO2 for 1 hour. After incubation plates are washed twice with 200 ul and once with 50 ul of phenol free RPMI+1% BSA. A final 50 ul of phenol free RPMI+1% BSA is added to wells after last wash. Next 50 ul of Promega cell titer glow is added to the wells. Plate is incubated on shaker for 2 minutes at 200 RPM followed by another 8 minutes off shaker before having the luminescence read on a Biotek Citation 5 plate reader. Raw data is converted to % inhibition compared to bottom of curve and analyzed using a 4-parameter non linear curve in Prism to determine IC50 and IC90.

IC50 (integrin α4β7) [nM] | IC50 (α4β7) [nM] | Compound
≤ 10 | – | Cc1cc(C)c(-c2cc(C)c(F)c([C@H](CC(=O)O)NC(=O)C(CC(C)C)n3cc(CCN(C)C)c(C(F)(F)F)cc3=O)c2)c(C)c1 (single isomer, unassigned) [AC-P2]
– | < 5 | Cc1cc(-c2c(C)cccc2C)cc([C@H](CC(=O)O)NC(=O)[C@H](CC(C)C)n2cc(CCN3CC[C@@H](F)C3)cc(F)c2=O)c1F (single isomer, unassigned) [AU-P2]
